Experimental data: patent publication US20120093809A1, “USE OF ALKANOYL L-CARNITINE IN COMBINATION WITH CHEMOTHERAPEUTIC AGENTS FOR THE TREATMENT OF NEOPLASMS” (priority 2008, published 2012)

How the values were obtained:
NCI-H460 NSCLC = test: Antitumor activity of cisplatin in combination with acetyl L-carnitine, s.c. xenograft; format: in vivo; conditions: cisplatin ip q3-4dx5, alone or with acetyl L-carnitine 200 mg/kg p.o. qdx5/wx4w
Description: (§1) Treatments started three days after tumor injection.
Mice were subdivided (12 mice/group) in the following experimental groups:
Acetyl L-carnitine was administered immediately before the drug given in combination.
(§2) To evaluate the antitumor activity, tumor diameters were measured with a Vernier caliper.
(§3) When tumors reached a volume of 1-2 cm^3, mice were sacrificed by cervical dislocation. Body weight recording was carried out through the study and mortality was noted.

[1] = test system: IGROV-1 ovarian carcinoma; format: in vivo, CD1 nude mice; conditions: day +41; cisplatin 4 mg/kg ip, alone or with acetyl L-carnitine 200 mg/kg po
Description: (§4) Treatments started three days after cancer injection.
When tumors reached a volume of about 1-2 cm^3, mice were sacrificed by cervical dislocation.
(§5) Body weight recording was carried out through the study.

[2] = test system: NCI-H1650 non-small cell lung carcinoma; test: Antitumor activity of acetyl L-carnitine in combination with cisplatin, s.c. xenograft; format: in vivo
Description: Treatments started eleven days after cancer injection.
(§6) When tumors reached a volume of about 1 cm3, mice were sacrificed by cervical dislocation.
as §5

[3] = test system: A549 non-small cell lung carcinoma; test: as above; format: in vivo
Description: Treatments started six days after cancer injection.
as §6, §5

[4] = test system: NCI-H1650 non-small cell lung carcinoma cells; test: Antiproliferative activity of cisplatin with and without acetyl L-carnitine, MTT assay; format: cell-based; conditions: acetyl L-carnitine 10 mM where combined, 6 days of exposure, 0.1% FBS
Description: (§7) Moreover, the activity was also evaluated on two prostate tumor cell lines with p53 wild-type (LnCaP) or p53 null (PC3). […] The number of surviving cells was finally determined by the tetrazolium salt (MTT) assay, as described by Hansen M B et al. (Re-examination and further development of a precise and rapid dye method for measuring cell growth/cell kill. J. Immunol. Methods 119: 203-10, 1989). […] In this case the statistical comparison was performed by Mann-Whitney test.
(§8) To test the effects of the compounds on cell growth, tumor cells were seeded in 96-well tissue culture plates at approximately 10% confluence and were allowed to attach and recover for at least 24 h. Tumor cells were exposed to compounds for 72 h or 6 days in 0.1% FBS at 37° C., then medium culture was removed and 100 μL/well of medium were added containing 25 μL/well of a solution 5 mg/mL MTT (final 1 mg/mL). Plates were kept at. 37° C. in incubator with 5% CO2 for 2 h for the formation of blu chrystals. The supernatant was removed and 100 μL/well of lysant medium were added. Plates were kept under stirring for 60 min. The survival cell was determined as optical density by a Multiskan spectrofluorimeter at 570 nm.

[5] = test system: LnCaP prostate carcinoma cells (p53 wild-type); test: as above; format: cell-based; conditions: acetyl L-carnitine 10 mM where combined, 6 days of exposure, 0.1% FBS
Description: as §7, §8

[6] = test system: PC3 prostate carcinoma cells (p53 null); test: as above; format: cell-based; conditions: acetyl L-carnitine 10 mM where combined, 72 h of exposure, 0.1% FBS
Description: as §7, §8

[7] = test system: SJSA-1 (with amplification of mdm2) osteosarcoma cells; test: as above; format: cell-based; conditions: acetyl L-carnitine 10 mM where combined, 72 h of exposure followed by 72 h of recovery, 0.1% FBS
Description: as §7, §8

lung metastases = conditions: cisplatin alone, 6 to 8 mg/kg; cited from earlier work
[8] = test system: NCI-H460 non-small cell lung carcinoma; test: Antitumor activity of cisplatin in combination with L-carnitine, s.c. xenograft; format: in vivo; conditions: cisplatin 4 mg/kg ip, alone or with L-carnitine 200 mg/kg po
Description: as §1, §2, §3

[9] = test system: SW620 colon carcinoma with mutant p53; format: in vivo, CD1 nude mice; conditions: day +20; cisplatin 4 mg/kg ip, alone or with acetyl L-carnitine 200 mg/kg po
Description: as §4
When tumors reached a volume of about 1 cm^3, mice were sacrificed by cervical dislocation.
as §5

[10] = test system: A2780/Dx multidrug-resistant ovarian carcinoma cells; test: Antiproliferative activity of cisplatin with and without acetyl L-carnitine, MTT assay; format: cell-based; conditions: acetyl L-carnitine 10 mM where combined, 6 days of exposure, 0.1% FBS
Description: as §7
as §8, with “Tumor cells were exposed to compounds for 72 h or 6 days in 0.1% FBS at 37° C., then medium culture was removed and 100 μL/well of medium were added containing 25 μL/well of a solution 5 mg/mL MTT (final 1 mg/mL).” left out

[11] = test system: NCI-H460 non-small cell lung carcinoma cells; test: as above; format: cell-based; conditions: acetyl L-carnitine 10 mM where combined, 72H of exposure, 0.1% FBS
Description: as §7
as §8, with “Tumor cells were exposed to compounds for 72 h or 6 days in 0.1% FBS at 37° C., then medium culture was removed and 100 μL/well of medium were added containing 25 μL/well of a solution 5 mg/mL MTT (final 1 mg/mL).” left out

[12] = day +41, cisplatin 4 mg/kg ip, alone or with acetyl L-carnitine 200 mg/kg po
[13] = cisplatin 4 mg/kg ip, alone or with acetyl L-carnitine 200 mg/kg po

Question: With `N.N.[Cl][Pt][Cl]` [Cisplatin] as the compound, how does the “LCK (1 cm^3)” value (NCI-H460 NSCLC; DT = 2.6 days) read?
Answer: The value was 0.6.

Question: And the “TVI % +31” value (NCI-H460 NSCLC; day +31)?
Answer: Its value is 41%.

Question: What about the “TV ± SE +41” value [1] of the same compound?
Answer: Its value is 231 ± 55 mm^3.

Question: And the “TVI % ± SE +41” value [1]?
Answer: Its value is 35 ± 8%.

Question: What about the BWL % max ([2]; cisplatin 4 mg/kg ip q3-4d/wx3w, alone or with acetyl L-carnitine 200 mg/kg po qdx5/wx5w) of the same compound?
Answer: Its BWL % max is 10%.

Question: And the “TV ± SE +41” value [2, 12]?
Answer: Its value is 206 ± 32 mm^3.

Question: And the “TVI % ± SE +41” value [2, 12]?
Answer: Its value is 23 ± 4%.

Question: And the BWL % max ([3]; cisplatin 4 mg/kg ip q3-4d/wx3w, alone or with acetyl L-carnitine 200 mg/kg po qdx5/wx4w)?
Answer: The BWL % max was 8%.

Question: And the “TV ± SE” value [3, 13]?
Answer: The value was 208 ± 55 mm^3.

Question: What about the “TVI % ± SE” value [3, 13] of the same compound?
Answer: Its value is 49 ± 12%.

Question: What about the IC50 ([4]; IC50±SD of cisplatin) of the same compound?
Answer: The IC50 was 1500 nM.

Question: What about the “CELL SURVIVAL % ± SE” value ([4]; cisplatin 78 nM) of the same compound?
Answer: Its value is 98 ± 4.0%.

Question: And the “CELL SURVIVAL % ± SE” value ([4]; cisplatin 312 nM)?
Answer: The value was 92 ± 2.0%.

Question: And the “CELL SURVIVAL % ± SE” value ([4]; cisplatin 625 nM)?
Answer: Its value is 81 ± 3.0%.

Question: And the “CELL SURVIVAL % ± SE” value ([4]; cisplatin […])?
Answer: The value was 95 ± 1.0%.

Question: And the IC50 ([5]; IC50±SD of cisplatin)?
Answer: The IC50 was 7800 nM.

Question: And the “CELL SURVIVAL % ± SE” value ([5]; cisplatin 1250 nM)?
Answer: The value was 92 ± 2%.

Question: What about the “CELL SURVIVAL % ± SE” value ([5]; cisplatin 2500 nM) of the same compound?
Answer: The value was 74 ± 5%.

Question: What about the “CELL SURVIVAL % ± SE” value ([5]; cisplatin 5000 nM) of the same compound?
Answer: Its value is 67 ± 2%.

Question: What about the “CELL SURVIVAL % ± SE” value ([5]; cisplatin 10000 nM) of the same compound?
Answer: Its value is 51 ± 3%.

Question: What about the IC50 ([6]; IC50±SD of cisplatin) of the same compound?
Answer: The IC50 was 4630 nM.

Question: And the “CELL SURVIVAL % ± SE” value ([6]; cisplatin 625 nM)?
Answer: The value was 97%.

Question: And the “CELL SURVIVAL % ± SE” value ([6]; cisplatin 1250 nM)?
Answer: The value was 89%.

Question: And the “CELL SURVIVAL % ± SE” value ([6]; cisplatin 2500 nM)?
Answer: The value was 76%.

Question: What about the “CELL SURVIVAL % ± SE” value ([6]; cisplatin 5000 nM) of the same compound?
Answer: The value was 52%.

Question: And the “CELL SURVIVAL % ± SE” value ([6]; cisplatin 10000 nM)?
Answer: Its value is 26%.

Question: And the IC50 ([7]; IC50±SD of cisplatin)?
Answer: The IC50 was 3200 nM.

Question: And the “CELL SURVIVAL % ± SE” value ([7]; cisplatin 312 nM)?
Answer: Its value is 100 ± 3.0%.

Question: What about the “CELL SURVIVAL % ± SE” value ([7]; cisplatin 625 nM) of the same compound?
Answer: The value was 90 ± 6.0%.

Question: And the “CELL SURVIVAL % ± SE” value ([7]; cisplatin 1250 nM)?
Answer: Its value is 90 ± 2.0%.

Question: What about the “CELL SURVIVAL % ± SE” value ([7]; cisplatin 2500 nM) of the same compound?
Answer: Its value is 64 ± 2.0%.

Question: What about the “CELL SURVIVAL % ± SE” value ([7]; cisplatin 5000 nM) of the same compound?
Answer: The value was 35 ± 1.0%.

Question: And the “number of lung metastases” value (lung metastases)?
Answer: The value was “significantly reduced the number of lung metastases”.

Question: And the “TV ± SE +32” value ([8]; day +32)?
Answer: The value was 345 ± 90 mm^3.

Question: And the Leth. ([8]; dead/total mice)?
Answer: Its Leth. is 0/9.

Question: What about the “TV ± SE +20” value [9] of the same compound?
Answer: The value was 244 ± 45 mm^3.

Question: What about the “TVI % ± SE +20” value [9] of the same compound?
Answer: The value was 55 ± 10%.

Question: And the IC50 ([10]; IC50±SD of cisplatin)?
Answer: The IC50 was 730 nM.

Question: What about the “CELL SURVIVAL % ± SE” value ([10]; cisplatin 625 nM) of the same compound?
Answer: Its value is 62 ± 2.0%.

Question: What about the “CELL SURVIVAL % ± SE” value ([10]; cisplatin 1250 nM) of the same compound?
Answer: Its value is 40 ± 1.0%.

Question: And the “CELL SURVIVAL % ± SE” value ([10]; cisplatin 2500 nM)?
Answer: Its value is 31 ± 1.0%.

Question: What about the “CELL SURVIVAL % ± SE” value ([10]; cisplatin […]) of the same compound?
Answer: The value was 86 ± 2.0%.

Question: And the IC50 ([11]; IC50±SD of cisplatin)?
Answer: Its IC50 is 400 nM.

Question: What about the “CELL SURVIVAL % ± SE” value ([11]; cisplatin 39 nM) of the same compound?
Answer: The value was 96 ± 2.4%.

Question: And the “CELL SURVIVAL % ± SE” value ([11]; cisplatin 78 nM)?
Answer: Its value is 93 ± 4.0%.

Question: What about the “CELL SURVIVAL % ± SE” value ([11]; cisplatin 312 nM) of the same compound?
Answer: Its value is 61 ± 2.0%.

Question: What about the “CELL SURVIVAL % ± SE” value ([11]; cisplatin 625 nM) of the same compound?
Answer: Its value is 39 ± 1.0%.

Question: What about the “CELL SURVIVAL % ± SE” value ([11]; cisplatin 1250 nM) of the same compound?
Answer: Its value is 24 ± 0.7%.

Question: And the “CELL SURVIVAL % ± SE” value ([11]; cisplatin […])?
Answer: Its value is 82 ± 2.0%.
